Test results published in US8455439B2, “Antidotes for factor Xa inhibitors and methods of using the same in combination with blood coagulating agents” (Portola Pharmaceuticals, Inc., priority 2008, dated 2013).
Several values for one entry are separate records, joined by “and”; a condition that tells them apart may be missing. Identical values can stand only once.

What was measured:
[1] = test system: pooled human plasma; assay: Prothrombin time (PT) clotting assay, MLA Electra 800 automatic coagulation timer; format: biochemical; conditions: 1 μM rivaroxaban alone (baseline 12.2 sec)
[2] = cited from earlier work
[3] = test system: thrombin generation in human plasma; assay: Thrombin generation assay in platelet poor or platelet rich plasma; format: biochemical; conditions: 250 nM betrixaban, at all rfVIIa concentrations tested (50-200 nM) with tissue factor; FIG. 4
Description: PRP and PPP were prepared by spinning the anticoagulated blood at ˜100× gravity or 1000× gravity for 20 minutes, respectively, at room temperature. 75-100 microliter (uL) plasma was mixed with CaCl2 and Z-Gly-Gly-Arg-aminomethylcoumarin (Z-GGR-AMC, a thrombin fluorogenic substrate). Tissue factor (Innovin, Dade Behring) was added to initiate the generation of thrombin. For a typical experiment, the reaction mixture contained 15 millimolar (mM) Ca^2+, 100 micromolar (μM) Z-GGR-AMC, and 0.1 nanomolar (nM) tissue factor (TF) (Innovin). Thrombin formation was monitored continuously at 37° C. by a fluorometric plate reader (Molecular Devices) measuring the relative fluorescence units (RFU). Inhibitor and antidote, when present, were pre-incubated with plasma for 20 minutes at room temperature before initiation of thrombin generation.
PRP and PPP were prepared by spinning the anticoagulated blood at ˜100× gravity or 1000× gravity for 20 minutes, respectively, at room temperature. […] Tissue factor (Innovin, Dade Behring) and CaCl2 were added to initiate the generation of thrombin. […] Thrombin formation was monitored continuously at 37° C. by a fluorometric plate reader (Molecular Devices) measuring the relative fluorescence units (RFU). […]

[4] = test system: human platelet poor plasma; assay: Clotting prolongation assay, 96-well plate format (OD405 turbidity change, aPTT reagent); format: biochemical; conditions: 125 nM betrixaban, no r-Antidote, no FX; FIG. 26
[5] = test system: pooled human plasma; assay: aPTT clotting assay, MLA Electra 800 automatic coagulation timer; format: biochemical
Description: Two clotting assay formats were used to test the effects of factor Xa inhibitors and the antidote on clotting prolongation. […] In the second assay format, aPTT was measured with a conventional coagulation instrument (MLA Electra 800 automatic coagulation timer).
The effect of 1 antiXa Unit/mL LMWH on aPTT prolongation of plasma and the reversal of inhibitory effect was measured by a MLA Electra 800 Automatic coagulation timer. 100 μL pooled citrate anticoagulated human plasma was mixed with enoxaparin and different concentrations of antidote. Prior to measurement of clotting time, aPTT reagent (Actin FS, Dade Behring) and CaCl2 were added per manufacturer's instructions.

In the case of `O=C(NC[C@H]1CN(c2ccc(N3CCOCC3=O)cc2)C(=O)O1)c1ccc(Cl)s1` [rivaroxaban], the PT [1] is listed as 25 ± 0.4 s, the peak plasma concentrations ([2]; clinically effective doses) is listed as ≤ 318 ng/ml and ≤ 730 nM and the therapeutic concentrations ([2]; reported, Kubitza 2005) is listed as “approximately 600 nM”.

In the case of “[2-({4-[(dimethylamino)iminomethyl]phenyl}carbonylamino)-5-methoxyphenyl]-N-(5-chloro(2-pyridyl))carboxamide [betrixaban]”, the “inhibition of fXa by betrixaban (thrombin generation)” value [3] was “about 75%”, the “effect on clotting time” value [4] was “doubled the clotting time” and the “aPTT” value ([5]; 300 nM Betrixaban alone) was 61.8 s. For the same compound, the “aPTT” value ([5]; 400 nM Betrixaban alone (Table 17)) was 66.3 s, the aPTT ([5]; 400 nM betrixaban alone (Example 17, baseline 25.5 sec)) was 51.6 ± 0.4 s and the “extension of aPTT” value ([5]; 400 nM betrixaban, FIG. 13) was “more than two folds”.

With “fIX: human plasma derived blood coagulation factor IX (Haematologic Technologies)” the aPTT ([5]; 258 nM fIX, 400 nM betrixaban) was 43.8 s, the “correction of aPTT” value ([5]; 258 nM fIX, 400 nM betrixaban) was 15% and the “correction of aPTT” value ([5]; 387 nM fIX, 400 nM betrixaban) was 15%. For the same compound, the “effect on aPTT in human plasma” value ([5]; fIX, absence of betrixaban, FIG. 25) was “slightly reduced aPTT”.
